# Data as given in US20100170777A1, “AGENT FOR DEGRADING A NUCLEIC ACID AND METHOD OF DEGRADING A NUCLEIC ACID” (Morinaga Milk Industry Co., Ltd., priority 2006, published 2010).
# Legend:
# [1] = tested on: rRNA (16SrRNA and 23SrRNA) of living bacteria (E. coli); test: Influence of EMA plus visible light on nucleic acid inside living E. coli (in vivo; agarose gel electrophoresis), rRNA bands; type: cell-based; conditions: EMA 10 μg/ml; living E. coli/DH5α suspension; visible light 500 W halogen bulb 20 min
# Description: (§1) EMA was dissolved in sterile water to prepare 1000 μg/ml EMA solution. The solution was filtrated for sterilization through a 0.2 μm filter (Minisart-plus; manufactured by Sartorius AG). The EMA solution was added so that the final concentration of EMA become 0 (no addition), 0.01, 0.1, 1, 10, and 100 μg/ml with respect to 1 ml of 1.0×10^6CFU/ml living bacterial suspension of E. coli/DH5α strain, followed by leaving standing at 4° C. for 1 hour.
# (§2) Subsequently, at a distance of 20 cm from the above living bacterial suspension on ice, the sample was irradiated for 20 minutes with visible light from a 500 W halogen bulb (FLOOD PRF 100V 500 W; Iwasaki Electric Co., Ltd., Tokyo). […]
# (§3) Each of the treated solution was divided into two equal volumes and dispensed into two 2 ml micro tubes, respectively. […] The concentration of the purified nucleic acid solution was determined based on the absorbance at UV260 nm (50 μg/ml of the nucleic acid was defined as OD=1, cell length=1 cm:OD260). The purity of the purified nucliec acid was calculated by dividing OD260 with OD280.
# (§4) Each of the nucleic acid solutions was prepared at 175 ng/μl and 4 μl of each was then electrophoresed on 0.7% agarose gel. λ-EcoT14 I digest (manufactured by Takara Bio Inc.) was used as a molecular weight marker. […] The resulting image was recorded on the Polaroid film 667. […]
# E. coli chromosomal DNA [2] = test: Influence of EMA plus visible light on isolated E. coli nucleic acid in vitro (agarose gel electrophoresis), chromosomal DNA band; type: biochemical; conditions: visible light 500 W halogen bulb 20 min
# Description: (§5) b 1 ml living bacterial suspension of 1.0×10^6 CFU/ml of E. coli/DH5α strain was subjected to centrifugation under a cool condition. After removal of the supernatant, the resulting pellet was added with 0.5 ml of 10 mM Tris-HCl buffer solution (pH 8.0) and further added with 10 μl of 1250U/ml protease K solution and 200 μl of 10% SDS solution, followed by overnight bacteriolysis at 50° C.
# (§6) Subsequently, each of the treated solution was divided into two equal volumes and dispensed into two 2 ml micro tubes, respectively. Each of them was added with 0.5 ml of saturated phenol solution, then gently mixed for 15 minutes, and then added with 0.5 ml of chloroform, followed by gently mixing for 5 minutes. After that, the mixture was centrifuged at 6,000×g at 4° C. for 10 minutes. An aqueous phase, an upper layer, was transferred into an another 2 ml microtube and then added with 70 μl of 3M sodium acetate (pH 5.2) and 1.21 ml of 99.5% cold ethanol, followed by gentle mixing. […] The concentration of the purified nucleic acid solution was determined based on the absorbance at UV260 nm (50 μg/ml of the nucleic acid was defined as OD=1, cell length=1 cm:OD260).
# (§7) The nucleic acid solution thus prepared was adjusted to 175 ng/μl with sterile water and 4 μl aliquot of the nucleic acid solution was then added to each of microtubes. […] The resulting image was recorded on the Polaroid film 667. […]
# [3] = tested on: chromosomal DNA in the nucleic acid existing inside of the living bacteria (E. coli); test: Influence of EMA plus visible light on nucleic acid inside living E. coli (in vivo; agarose gel electrophoresis), chromosomal DNA band; type: cell-based; conditions: living E. coli/DH5α suspension, visible light 500 W halogen bulb 20 min
# Description: as §1, §2, §3, §4
# E. coli/DH5α strain = test: Antibacterial effect of EMA on living bacteria (number of living bacterial cells); type: cell-based; conditions: 1.0×10^6 CFU/ml E. coli/DH5α, visible light 500 W halogen bulb 20 min
# Description: as §1, with “Ethidium monoazide (EMA) was” for “EMA was”, “filtrated” for “filtrated for sterilization”, “μm sterile” for “μm”, “100 μg/ml, respectively” for “100 μg/ml”, “by left” for “by leaving”, “1 hour under light interception.” for “1 hour.”
# Subsequently, at a distant of 20 cm from the above living bacterial suspension on ice, the sample was irradiated for 20 minutes with visible light from a 500 W halogen bulb (FLOOD PRF 100V 500 W; Iwasaki Electric Co., Ltd., Tokyo). The sample was subjected to centrifugation at 15,000×g at 4° C. for 10 minutes and the supernatant was then removed to eliminate a product generated by the reaction of water with the visible light irradiation product of EMA (hydroxyamino ethidium), which could not covalently bind to nucleic acid. The pellet was added with an equal amount of physiological saline solution and then serially diluted, followed by 24 hour incubation at 37° C. using an L-plate agar culture medium to determine the number of living bacterial cells.
# E. coli chromosomal DNA [4] = test: Electron microscopy of E. coli chromosomal DNA treated with EMA and visible light in vitro; type: biochemical; conditions: visible light 500 W halogen bulb 20 min
# Description: Nucleic acid was extracted in a manner similar to Example 1 as described above. The nucleic acid was then dissolved in 9 ml of sterile water. A nucleic acid solution thus prepared was gently loaded on the top of 32 ml sucrose density gradient (16 ml of 10% sucrose solution and 16 ml of 40% sucrose solution were used) and then subjected to ultracentrifugation at 26,000 rpm at 20° C. for 18 hours with a swing rotor (manufactured by Hitachi Koki Co., Ltd.: RPS-27-2). After the centrifugation, a small hole was opened in the bottom of the sucrose density gradient solution and then fractionated every 1 ml.
# After that, for each fraction, 3M sodiumacetate solution (pH 5.2) was added so as to be 10% (vol/vol). Then, 2-fold volume of 99.5% ethanol was added. Subsequently, the fraction was subjected to centrifugation at 15,000×g at 4° C. for 10 minutes to recover the pellet. Then, the pellet was washed with 70% ethanol and then dissolved in 100 μl of sterile water.
# Among the samples obtained from the respective fraction solutions, a sample only containing a long chromosomal DNA with 48 kbp in agarose electrophoresis was further diluted with sterile water so as to be a DNA concentration of 175 ng/μl. Then 4 μl of each aqueous EMA solution (0, 0.02, 2, and 20 μg/ml) was added to 4 μl of the DNA solution and then left standing at 4° C. for 1 hour under light interception. […]
# [5] = tested on: rRNA (16SrRNA and 23SrRNA); test: Influence of EMA plus visible light on isolated E. coli nucleic acid in vitro (agarose gel electrophoresis), rRNA bands; type: biochemical; conditions: visible light 500 W halogen bulb 20 min
# Description: as §5, §6, §7
smiles,measurement,setting,value
"CC[n+]1c(-c2ccccc2)c2cc(N=[N+]=[N-])ccc2c2ccc(N)cc21.[Cl-] [EMA, 3-amino-8-azido-5-ethyl-6-phenyl-phenanthridinium chloride]",band intensity of rRNA (16SrRNA and 23SrRNA),[1],decreased
same,"intensity of the band originated from the chromosomal DNA of approximately 19,329 bps",E. coli chromosomal DNA [2]; EMA 100 ng/ml to 1 μg/ml,gradually decreased
same,"intensity of the band originated from the chromosomal DNA of approximately 19,329 bps",E. coli chromosomal DNA [2]; EMA 10 μg/ml,significantly disappeared
same,"intensity of the band originated from the chromosomal DNA of approximately 19,329 bps",[3]; EMA 10 μg/ml,gradually decreased
same,"intensity of the band originated from the chromosomal DNA of approximately 19,329 bps",[3]; EMA 100 μg/ml,significantly disappeared
same,decrease in number of living bacterial cells in comparison with the original number,E. coli/DH5α strain; EMA 10 μg/ml,~10^2 CFU/ml
same,decrease in number of living bacterial cells in comparison with the original number,E. coli/DH5α strain; EMA 100 μg/ml,~10^5 CFU/ml
same,effect of cleaving the chromosomal DNA (electron microscopy),E. coli chromosomal DNA [4]; EMA 0 to 0.01 μg/ml,not observed
same,effect of cleaving the chromosomal DNA (electron microscopy),E. coli chromosomal DNA [4]; EMA 1 μg/ml or more,caused the cleaving phenomenon of chromosomal DNA
same,band intensity of rRNA (16SrRNA and 23SrRNA),[5]; EMA 1 μg/ml,decreased
same,band intensity of rRNA (16SrRNA and 23SrRNA),[5]; EMA 10 μg/ml or more,disappeared
